Test results from PMC11202002, “P18: Novel Anticancer Peptide from Induced Tumor-Suppressing Cells Targeting Breast Cancer and Bone Metastasis” (Cancers, 2024).

Assays:
[1] = tested on: MDA-MB-436 breast cancer cells; test: Western blot analysis; assay type: cell-based, human; details: 25 µg/mL
Protocol: (§1) Cells were lysed using a RIPA lysis buffer (sc-24948, Santa Cruz Biotech, Dallas, TX, USA) containing protease inhibitors (PIA32963, Thermo Fisher) and phosphatase inhibitors (2006643, Cal-biochem, Billerica, MA, USA). The proteins were separated on 10–15% SDS gels (Bio-Rad Laboratories, Hercules, CA, USA) and transferred to a polyvinylidene difluoride membrane (IPVH00010, Millipore, Billerica, MA, USA). The membrane was incubated with primary antibodies, followed by incubation with secondary antibodies (7074S/7076S, Cell Signaling, Danvers, MA, USA). The antibodies used included those against Snail, p-Src, Src, cleaved caspase 3, caspase 3, RANKL, Cdc42, Col1 and RhoA (Cell Signaling), ALP (Santa Cruz Biotech), OCN (Abcam, Boston, MA, USA), with β-actin (Sigma) as a control. The protein levels were detected using SuperSignal West Femto Maximum Sensitivity Substrate (PI34096, Thermo Fisher) and a luminescent image analyzer (LAS-3000, Fuji Film, Tokyo, Japan).

[2] = tested on: MDA-MB-231 breast cancer cells; test: Western blot analysis; assay type: cell-based, human; details: 25 µg/mL
Protocol: as §1

[3] = tested on: TT2 osteosarcoma cell line; test: MTT-based cell viability assay; details: TT2; 25 μg/mL
Protocol: (§2) Using 96-well plates with approximately 2000 cells per well, an MTT-based metabolic activity assay was performed. The cells were treated with agents and incubated for two days. On the fourth day, they were stained with 0.5 mg/mL thiazolyl blue tetrazolium bromide (M5655, Sigma). The optical density, used to assess metabolic activity, was measured at 562 nm. For the EdU-based proliferation activity assay, the cells were seeded in 96-well plates at about 1000 cells per well. A fluorescence-based cell proliferation kit (Click-iT™, EdU Alexa Fluor™ 488 Imaging Kit; Thermo Fisher, Waltham, MA, USA) was used according to the manufacturer’s instructions.

PANC198 PDAC cells = test: MTT-based cell viability assay; details: PANC198 (PAN198); 25 μg/mL
Protocol: as §2

PANC1 PDAC cells = test: MTT-based cell viability assay; details: 25 μg/mL
Protocol: as §2

[4] = tested on: 4T1.2 mammary tumor cells; test: MTT-based cell viability assay; parameters: species or system mouse; details: 25 μg/mL
Protocol: as §2

MDA-MB-436 cells [5] = test: MTT-based cell viability assay; parameters: species or system human
Protocol: as §2

MDA-MB-231 cells [6] = test: MTT-based cell viability assay; parameters: species or system human
Protocol: as §2

MCF7 cells = test: MTT-based cell viability assay; parameters: species or system human; details: 5, 10, 15, and 25 µg/mL of P18
Protocol: as §2

[7] = tested on: RANKL-stimulated osteoclasts; test: Osteoclast differentiation and maturation; assay type: cell-based; details: 25 μg/mL
[8] = tested on: 4T1.2 mammary tumor cells; test: Scratch-based motility assay; assay type: cell-based, mouse; details: 25 μg/mL
Protocol: To evaluate the two-dimensional motility of cancer cells, a wound-healing scratch assay was utilized, and the change in the scratch area was determined. On day 1, ~3 × 10^5 cells were seeded in 12-well plates, and, on day 2, a scratch was made on the cell layer, with the tip of a plastic pipette. Using a light microscope (40×), cell-free zones were imaged after 0 h and 24 h, and the alteration in their areas was quantified by Image J (Version 1.54 f).

MDA-MB-436 cells [9] = test: EdU-based proliferation assay; assay type: cell-based, human; details: 25 µg/mL
Protocol: as §2

MDA-MB-231 cells [10] = test: EdU-based proliferation assay; assay type: cell-based, human; details: 25 µg/mL
Protocol: as §2

MDA-MB-436 cells [11] = test: Transwell invasion assay; assay type: cell-based, human; details: 25 µg/mL
Protocol: (§3) The invasion capacity of cancer cells in response to ACPs was assessed using 8 µm pore transwell chambers (353182, Thermo Fisher) in a 12-well plate. The chambers were coated with 300 µL Matrigel (100 µg/mL) and filled with 500 µL of the serum-free medium. After washing the chamber three times with the serum-free medium, approximately 7 × 10^4 cells in 300 µL serum-free DMEM were placed in the upper chamber, while 800 µL medium was added to the lower chamber. Cells that migrated to the lower side of the membrane were fixed with methanol and stained with crystal violet. Five random images were captured with an inverted optical microscope at 100× magnification, and the average number of stained cells, representing the invasion capacity, was determined.

MDA-MB-231 cells [12] = test: Transwell invasion assay; assay type: cell-based, human; details: 25 µg/mL
Protocol: as §3

Rac1 = test: FRET-based GTPase activity assay; assay type: cell-based; details: MDA-MB-231 cells; 25 µg/mL for 3 h
Description: (§4) The three FRET GTPase biosensors were utilized to monitor the activities of Rac1, Cdc42, and RhoA in response to ACPs. GTPase activity was estimated based on the emission ratio of yellow fluorescent protein (YFP) to cyan fluorescent protein (CFP), using a Nikon Ti-E inverted microscope with an EMCCD camera (Photometrics, Tucson, AZ, USA), a filter wheel controller (Sutter Instruments, Novato, CA, USA), and a Nikon Perfect Focus System. To reduce photobleaching, an Intensilight fluorescence illuminator (Nikon, Tokyo, Japan) was employed with a neutral-density 32 filter (3% transmittance). The images were captured with a 40× (0.75 numerical aperture) objective, and they were scaled utilizing the color bar, as previously published.
(§5) This study next investigated the role of P18 in regulating the activity of Rho family GTPases. MDA-MB-231 breast cancer cells were transfected with Rac1, Cdc42, or RhoA biosensors and treated with P18 at a concentration of 25 µg/mL for 3 h. The GTPase activity was assessed by measuring the emission ratio of the biosensor within individual live cells.

Cdc42 = test: FRET-based GTPase activity assay; assay type: cell-based; details: MDA-MB-231 cells; 25 µg/mL for 3 h
Description: as §4, §5

RhoA = test: FRET-based GTPase activity assay; assay type: cell-based; details: MDA-MB-231 cells; 25 µg/mL for 3 h
Description: as §4, §5

[13] = relative to cn = 1.00, peptide concentration not given, treated two days, OD 562 nm

In the case of TDYMVGSYGPR [P18], the “levels of RhoA and Cdc42” value [1] is reported as “slight upregulation”, the “levels of cleaved caspase 3” value [1] is reported as “increasing” and the “levels of p-Src and Snail” value [1] is reported as “downregulated”. The “levels of RhoA and Cdc42” value [2] was “slight upregulation”, the “levels of cleaved caspase 3” value [2] was “increasing” and the “levels of p-Src and Snail” value [2] was “downregulated”. For the same sequence, the MTT-based viability [3] was “significantly decreased”, the MTT-based viability (PANC198 PDAC cells) was “significantly decreased” and the MTT-based viability (PANC1 PDAC cells) was “significantly decreased”. The MTT-based viability [4] was “consistently reduced”, the “decrease in MTT viability” value (MDA-MB-436 cells [5]; 5, 10, 15, and 25 µg/mL of P18) was “dose-dependent” and the MTT-based relative viability (MDA-MB-436 cells [5]; [13]) was 0.82. For the same sequence, the “decrease in MTT viability” value (MDA-MB-231 cells [6]; 5, 10, 15, and 25 µg/mL of P18) was “dose-dependent”, the MTT-based relative viability (MDA-MB-231 cells [6]; [13]) was 0.86 and the “decrease in MTT viability” value (MCF7 cells) was “dose-dependent”. For the same sequence, the “differentiation and maturation of RANKL-stimulated osteoclasts” value [7] was “inhibited”, the “number of multi-nucleated TRAP-positive osteoclasts (more than three nuclei)” value [7] was “significantly reduced” and the scratch-based mobility [8] was “consistently reduced”. For the same sequence, the EdU-based proliferation (MDA-MB-436 cells [9]) was “inhibited”, the EdU-based proliferation (MDA-MB-231 cells [10]) was “decreased” and the transwell invasion (MDA-MB-436 cells [11]) was “inhibited”. The transwell invasion (MDA-MB-231 cells [12]) was “decreased”, the “Rac1 GTPase activity (FRET biosensor emission ratio)” value (Rac1) was “no significant change” and the “Cdc42 GTPase activity (FRET biosensor emission ratio)” value (Cdc42) was “significant decrease”. For the same sequence, the “RhoA GTPase activity (FRET biosensor emission ratio)” value (RhoA) was “significant decrease”.
